From patent US7759337B2, “Phthalazine compounds and methods of use” (Amgen Inc., priority 2005, dated 2010)

System: production of TNF by monocytes activated with bacterial lipopolysaccharide (LPS)
Test: Lipopolysaccharide-activated monocyte TNF production assay
Type: cell-based
Settings: Homo sapiens; whole blood monocyte assay (LPS induced TNF release)
In short: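 Adherent human PBMC-derived monocytes preincubated 60 min with nine two-fold compound dilutions, then stimulated with E. coli K532 LPS (30 ng/mL in the added medium) for 4 h at 37 °C. Supernatant TNF measured by sandwich ELISA; IC50 is the compound concentration halving TNF production, from second-order polynomial fits.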

Q: For Cc1ccc(C(N)=O)cc1-c1ccc2c(Oc3cccnc3C)nncc2c1 [Example 300, 4-methyl-3-{1-[(2-methylpyridin-3-yl)oxy]phthalazin-6-yl}benzamide], which IC50 is on record?
A: ≤ 5 µM

Q: Which IC50 does the source give for Cc1ccc(C(N)=O)cc1-c1ccc2c(Oc3ccc(F)cc3)nncc2c1 [Example 301, 3-[1-(4-fluorophenoxy)phthalazin-6-yl]-4-methylbenzamide] here?
A: ≤ 5 µM

Q: With CC[C@H](C)Oc1nncc2cc(-c3cc(C(=O)NC4CC4)ccc3C)ccc12 [Example 302, N-cyclopropyl-4-methyl-3-(1-{[(1S)-1-methylpropyl]oxy}phthalazin-6-yl)benzamide] as the molecule, how does the IC50 read?
A: ≤ 5 µM

Q: Which IC50 does the source give for CC[C@H](C)Nc1nncc2cc(-c3cc(C(N)=O)ccc3C)ccc12 [Example 303, 4-methyl-3-(1-{[(1S)-1-methylpropyl]amino}phthalazin-6-yl)benzamide] here?
A: ≤ 5 µM

Q: How did the IC50 turn out when Cc1ccc(C(N)=O)cc1-c1ccc2c(Oc3ccc(F)cc3F)nncc2c1 [Example 304, 3-[1-(2,4-difluorophenoxy)phthalazin-6-yl]-4-methylbenzamide] was run?
A: ≤ 5 µM

Q: For Cc1cc(F)ccc1Oc1nncc2cc(-c3cc(C(=O)NC4CC4)ccc3C)ccc12 [Example 305, N-cyclopropyl-3-[1-(4-fluoro-2-methylphenoxy)phthalazin-6-yl]-4-methylbenzamide], which IC50 is on record?
A: ≤ 5 µM

Q: With COc1ccccc1Oc1nncc2cc(-c3cc(C(N)=O)ccc3C)ccc12 [Example 306, 3-[1-(2-methoxyphenoxy)phthalazin-6-yl]-4-methylbenzamide] as the molecule, how does the IC50 read?
A: ≤ 5 µM

Q: For Cc1ccc(C(N)=O)cc1-c1ccc2c(Oc3cccc(Cl)c3)nncc2c1 [Example 307, 3-[1-(3-chlorophenoxy)phthalazin-6-yl]-4-methylbenzamide], which IC50 is on record?
A: ≤ 5 µM

Q: Which IC50 does the source give for Cc1ccc(C(=O)NC2CC2)cc1-c1ccc2c(Oc3cccnc3C)nncc2c1 [Example 308, N-cyclopropyl-4-methyl-3-{1-[(2-methylpyridin-3-yl)oxy]phthalazin-6-yl}benzamide] here?
A: ≤ 5 µM

Q: With Cc1ccc(C(=O)NC2CC2)cc1-c1ccc2c(NC[C@@H]3CCCO3)nncc2c1 [Example 309, N-cyclopropyl-4-methyl-3-(1-{[(2S)-tetrahydrofuran-2-ylmethyl]amino}phthalazin-6-yl)benzamide] as the molecule, how does the IC50 read?
A: ≤ 5 µM

Q: Which IC50 does the source give for Cc1ccc(C(=O)NC2CC2)cc1-c1ccc2c(NCCCN3CCCC3=O)nncc2c1 [Example 310, N-cyclopropyl-4-methyl-3-(1-{[3-(2-oxopyrrolidin-1-yl)propyl]amino}phthalazin-6-yl)benzamide] here?
A: ≤ 5 µM

Q: Which IC50 does the source give for Cc1ccc(C(N)=O)cc1-c1ccc2c(OC3CCCCC3)nncc2c1 [Example 311, 3-[1-(cyclohexyloxy)phthalazin-6-yl]-4-methylbenzamide] here?
A: ≤ 5 µM

Q: For Cc1ccc(C(=O)NC2CC2)cc1-c1ccc2c(NC3CCC(O)CC3)nncc2c1 (stereo not shown) [Example 312, N-cyclopropyl-3-{1-[(4-hydroxycyclohexyl)amino]phthalazin-6-yl}-4-methylbenzamide], which IC50 is on record?
A: ≤ 5 µM

Q: With CC[C@@H](C)Nc1nncc2cc(-c3cc(C(=O)NC4CC4)ccc3C)ccc12 [Example 314, N-cyclopropyl-4-methyl-3-(1-{[(1R)-1-methylpropyl]amino}phthalazin-6-yl)benzamide] as the molecule, how does the IC50 read?
A: ≤ 5 µM

Q: For Cc1ccc(C(N)=O)cc1-c1ccc2c(OCC(C)(C)C)nncc2c1 [Example 315, 4-methyl-3-[1-(neopentyloxy)phthalazin-6-yl]benzamide], which IC50 is on record?
A: ≤ 5 µM

Q: For Cc1ccc(C(N)=O)cc1-c1ccc2c(OC3CCCN(C)C3)nncc2c1 (stereo not shown) [Example 316, 4-methyl-3-{1-[(1-methylpiperidin-3-yl)oxy]phthalazin-6-yl}benzamide], which IC50 is on record?
A: ≤ 5 µM

Q: With Cc1ccc(C(=O)NC2CC2)cc1-c1ccc2c(OC3CCCN(C)C3)nncc2c1 (stereo not shown) [Example 317, N-cyclopropyl-4-methyl-3-{1-[(1-methylpiperidin-3-yl)oxy]phthalazin-6-yl}benzamide] as the molecule, how does the IC50 read?
A: ≤ 5 µM

Q: For Cc1ccccc1Oc1nncc2cc(-c3c(C)ccc4c(NC5CC5)noc34)ccc12 [Example 318, N-cyclopropyl-6-methyl-7-[1-(2-methylphenoxy)phthalazin-6-yl]-1,2-benzisoxazol-3-amine], which IC50 is on record?
A: ≤ 5 µM

Q: Which IC50 does the source give for Cc1ccc(C(=O)NC2CC2)cc1-c1ccc2c(OC3CCN(C)CC3)nncc2c1 [Example 319, N-cyclopropyl-4-methyl-3-{1-[(1-methylpiperidin-4-yl)oxy]phthalazin-6-yl}benzamide] here?
A: ≤ 5 µM

Q: Cc1cc(F)ccc1Oc1nncc2cc(-c3cc(C(N)=O)ccc3C)ccc12 [Example 320, 3-[1-(4-fluoro-2-methylphenoxy)phthalazin-6-yl]-4-methylbenzamide] was tested. Which IC50 did it give?
A: ≤ 5 µM

Q: Cc1ccc(Oc2nncc3cc(-c4cc(C(N)=O)ccc4C)ccc23)c(C)c1 [Example 321, 3-[1-(2,4-dimethylphenoxy)phthalazin-6-yl]-4-methylbenzamide] was tested. Which IC50 did it give?
A: ≤ 5 µM

Q: How did the IC50 turn out when CC[C@H](C)Oc1nncc2cc(-c3cc(C(N)=O)ccc3C)ccc12 [Example 322, 4-methyl-3-(1-{[(1S)-1-methylpropyl]oxy}phthalazin-6-yl)benzamide] was run?
A: ≤ 5 µM

Q: Cc1ccc(C(N)=O)cc1-c1ccc2c(NC3CCCC3)nncc2c1 [Example 323, 3-[1-(cyclopentylamino)phthalazin-6-yl]-4-methylbenzamide] was tested. Which IC50 did it give?
A: ≤ 5 µM

Q: With CC[C@@H](C)Oc1nncc2cc(-c3cc(C(N)=O)ccc3C)ccc12 [Example 324, 4-methyl-3-(1-{[(1R)-1-methylpropyl]oxy}phthalazin-6-yl)benzamide] as the molecule, how does the IC50 read?
A: ≤ 5 µM

Q: Cc1ccc(C(=O)NC2CC2)cc1-c1ccc2c(NC3CCCC3)nncc2c1 [Example 325, 3-[1-(cyclopentylamino)phthalazin-6-yl]-N-cyclopropyl-4-methylbenzamide] was tested. Which IC50 did it give?
A: ≤ 5 µM

Q: For Cc1ccc(C(=O)NC2CC2)cc1-c1ccc2c(OCC(C)(C)C)nncc2c1 [Example 326, N-cyclopropyl-4-methyl-3-[1-(neopentyloxy)phthalazin-6-yl]benzamide], which IC50 is on record?
A: ≤ 5 µM

Q: How did the IC50 turn out when Cc1ccc(C(=O)NC2CC2)cc1-c1ccc2c(NC(C)(C)C)nncc2c1 [Example 327, 3-[1-(tert-butylamino)phthalazin-6-yl]-N-cyclopropyl-4-methylbenzamide] was run?
A: ≤ 5 µM

Q: Which IC50 does the source give for CC[C@@H](C)Oc1nncc2cc(-c3cc(C(=O)NC4CC4)ccc3C)ccc12 [Example 328, N-cyclopropyl-4-methyl-3-(1-{[(1R)-1-methylpropyl]oxy}phthalazin-6-yl)benzamide] here?
A: ≤ 5 µM

Q: For Cc1ccc(C(=O)NC2CC2)cc1-c1ccc2c(NC3CCOCC3)nncc2c1 [Example 329, N-cyclopropyl-4-methyl-3-[1-(tetrahydro-2H-pyran-4-ylamino)phthalazin-6-yl]benzamide], which IC50 is on record?
A: ≤ 5 µM

Q: For CNc1noc2c(-c3ccc4c(O[C@@H](C)COC)nncc4c3)c(C)ccc12 [Example 330, N,6-dimethyl-7-(1-(((1S)-1-methyl-2-(methyloxy)ethyl)oxy)-6-phthalazinyl)-1,2-benzisoxazol-3-amine], which IC50 is on record?
A: ≤ 5 µM

Q: For CNc1noc2c(-c3ccc4c(OC(C)C)nncc4c3)c(C)ccc12 [Example 331, N,6-dimethyl-7-(1-((1-methylethyl)oxy)-6-phthalazinyl)-1,2-benzisoxazol-3-amine], which IC50 is on record?
A: ≤ 5 µM

Q: Cc1ccc(Oc2ccc3c(-c4ccccc4C)nncc3c2)cc1 [Example 332, 6-(4-methylphenoxy)-1-(2-methylphenyl)phthalazine] was tested. Which IC50 did it give?
A: ≤ 5 µM

Q: Fc1ccc(Oc2ccc3c(-c4ccc(CN5CCOCC5)cc4)nncc3c2)cc1 [Example 333, 6-(4-fluorophenoxy)-1-[4-(morpholin-4-ylmethyl)phenyl]phthalazine] was tested. Which IC50 did it give?
A: ≤ 5 µM

Q: Which IC50 does the source give for COc1ccccc1-c1nncc2cc(Oc3ccc(C)cc3)ccc12 [Example 334, 1-(2-methoxyphenyl)-6-(4-methylphenoxy)phthalazine] here?
A: ≤ 5 µM

Q: With CS(=O)(=O)c1ccc(-c2nncc3cc(Oc4ccc(F)cc4)ccc23)cc1 [Example 335, 6-(4-fluorophenoxy)-1-[4-(methylsulfonyl)phenyl]phthalazine] as the molecule, how does the IC50 read?
A: ≤ 5 µM

Q: How did the IC50 turn out when Fc1ccc(Oc2ccc3c(N4CCOCC4)nncc3c2)cc1 [Example 336, 6-(4-fluorophenoxy)-1-morpholin-4-ylphthalazine] was run?
A: ≤ 5 µM

Q: How did the IC50 turn out when Fc1ccc(Oc2ccc3c(-c4ccsc4)nncc3c2)cc1 [Example 337, 6-(4-fluorophenoxy)-1-thien-3-ylphthalazine] was run?
A: ≤ 5 µM

Q: Cc1ccccc1-c1nncc2cc(Oc3cccc(Cl)c3)ccc12 [Example 338, 6-(3-chlorophenoxy)-1-(2-methylphenyl)phthalazine] was tested. Which IC50 did it give?
A: ≤ 5 µM

Q: Which IC50 does the source give for Fc1ccc(Oc2ccc3c(-c4ccccc4C(F)(F)F)nncc3c2)cc1 [Example 339, 6-(4-fluorophenoxy)-1-[2-(trifluoromethyl)phenyl]phthalazine] here?
A: ≤ 5 µM

Q: For Cc1ccccc1-c1nncc2cc(Oc3ccc(F)cc3)ccc12 [Example 340, 6-(4-fluorophenoxy)-1-(2-methylphenyl)phthalazine], which IC50 is on record?
A: ≤ 5 µM

Q: For Cc1cc(F)ccc1-c1nncc2cc(Oc3ccc(F)cc3)ccc12 [Example 341, 1-(4-fluoro-2-methylphenyl)-6-(4-fluorophenoxy)phthalazine], which IC50 is on record?
A: ≤ 5 µM

Q: Which IC50 does the source give for COC(=O)c1ccccc1Oc1ccc2c(-c3ccccc3C)nncc2c1 [Example 342, methyl 2-{[1-(2-methylphenyl)phthalazin-6-yl]oxy}benzoate] here?
A: ≤ 5 µM

Q: For Cc1ccccc1-c1nncc2cc(Oc3ccccc3C(=O)NC3CC3)ccc12 [Example 343, N-cyclopropyl-2-{[1-(2-methylphenyl)phthalazin-6-yl]oxy}benzamide], which IC50 is on record?
A: ≤ 5 µM

Q: How did the IC50 turn out when Fc1ccc(Oc2ccc3c(-c4cn[nH]c4)nncc3c2)cc1 [Example 344, 6-(4-fluorophenoxy)-1-(1H-pyrazol-4-yl)phthalazine] was run?
A: ≤ 5 µM

Q: With Cc1ccccc1-c1nncc2cc(Oc3ccc(F)cc3F)ccc12 [Example 345, 6-(2,4-difluorophenoxy)-1-(2-methylphenyl)phthalazine] as the molecule, how does the IC50 read?
A: ≤ 5 µM

Q: For Cc1ccc(Oc2ccc3c(-c4ccccc4Cl)nncc3c2)cc1 [Example 346, 1-(2-chlorophenyl)-6-(4-methylphenoxy)phthalazine], which IC50 is on record?
A: ≤ 5 µM
